Laboratory results from patent US11795177B2, “Substituted quinoline analogs as aldehyde dehydrogenase 1A1 (ALDH1A1) inhibitors” (THE UNITED STATES OF AMERICA, AS REPRESENTED BY THE …, priority 2017, dated 2023).

Assays:
MIA PaCa-2 cells = assay: MIA PaCa2 cell-based assay (1,536-well high-content imaging ALDEFLUOR assay); parameters: species or system human; conditions: Homo sapiens, 0.5 h, ALDEFLUOR BAAA substrate 500 nM, 30 minutes
Outline: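 MIA PaCa-2 cells (1,000/well), plated overnight, given BAAA substrate (500 nM) plus Hoechst 33342 (0.5 nM), then compound (16-point, 1.4 nM–47.8 μM final; 0.5% DMSO). After 30 min at 37° C, ALDH activity imaged by high-content microscopy as BAA-retaining (FITC) cells versus Hoechst-stained nuclei.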

ALDH1A1 enzyme = biological target: T1, ALDH1A1 enzyme (Homo sapiens, UniProt P00352); assay: ALDH1A1 enzymatic assay (in vitro); assay type: biochemical; conditions: ALDH1A1 enzyme 20 nM, NAD+ 1 mM, propionaldehyde 80 μM; read-out: ALDH1A1 IC50
T1 sequence (P00352 1-501): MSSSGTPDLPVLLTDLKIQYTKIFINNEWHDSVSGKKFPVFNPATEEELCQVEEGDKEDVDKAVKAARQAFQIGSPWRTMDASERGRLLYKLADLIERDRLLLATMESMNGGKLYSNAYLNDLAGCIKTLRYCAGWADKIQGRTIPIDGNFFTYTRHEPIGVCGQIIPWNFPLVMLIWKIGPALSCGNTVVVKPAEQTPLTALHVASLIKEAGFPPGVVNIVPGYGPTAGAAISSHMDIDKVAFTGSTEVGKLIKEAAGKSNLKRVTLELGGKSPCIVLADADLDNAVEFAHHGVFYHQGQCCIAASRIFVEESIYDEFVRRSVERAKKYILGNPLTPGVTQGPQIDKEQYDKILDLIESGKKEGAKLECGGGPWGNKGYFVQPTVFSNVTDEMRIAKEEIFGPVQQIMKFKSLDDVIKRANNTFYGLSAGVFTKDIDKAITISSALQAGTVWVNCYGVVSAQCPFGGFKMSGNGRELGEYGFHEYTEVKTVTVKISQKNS
Outline: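 ALDH1A1 (20 nM final) in 100 mM HEPES pH 7.5, 0.01% Tween 20 was preincubated 15 min at RT with compound (968 pM–57.2 μM final), then started with 1 mM NAD+ and 80 μM propionaldehyde. NADH fluorescence (ex 340/em 450 nm) followed kinetically for 10 min; change normalized to no-inhibitor and no-enzyme controls for percent inhibition and curve fitting.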

Structure (SMILES)	IC50 (MIA PaCa-2 cells) [µM]	IC50 (ALDH1A1 enzyme) [µM]
CCS(=O)(=O)N1CCN(C(=O)c2cnc3ccc(F)cc3c2N2CCC3(CC2)OCCO3)CC1 [Example 151, (4-(ethylsulfonyl)piperazin-1-yl)(6-fluoro-4-(1,4-dioxa-8-azaspiro[4.5]decan-8-yl)quinolin-3-yl)methanone]	1 to 10	< 0.5
CN(C)S(=O)(=O)N1CCN(C(=O)c2cnc3cc(F)c(F)cc3c2N2CCC(C)(C#N)CC2)CC1 [Example 177, 4-(4-(4-cyano-4-methylpiperidin-1-yl)-6,7-difluoroquinoline-3-carbonyl)-N,N-dimethylpiperazine-1-sulfonamide]	< 0.5	< 0.5
N#CC1(c2ccccc2)CCN(c2c(C(=O)Nc3cnn(CCO)c3)cnc3ccc(F)cc23)CC1 [Cpd. 345, 4-(4-cyano-4-phenylpiperidin-1-yl)-6-fluoro-N-(1-(2-hydroxyethyl)-1H-pyrazol-4-yl)quinoline-3-carboxamide]	< 0.5	< 0.5
CCNC(=O)N1CCN(C(=O)c2cnc3c(F)c(F)c(F)cc3c2N2CCC3(CC2)OCCO3)CC1 [Example 144, N-ethyl-4-(6,7,8-trifluoro-4-(1,4-dioxa-8-azaspiro[4.5]decan-8-yl)quinoline-3-carbonyl)piperazine-1-carboxamide]	1 to 10	< 0.5
N#CC1(c2ccc(-c3c(C(=O)N4CC(O)C4)cnc4ccc(F)cc34)cc2)CC1 [Cpd. 334, 1-(4-(6-fluoro-3-(3-hydroxyazetidine-1-carbonyl)quinolin-4-yl)phenyl)cyclopropane-1-carbonitrile]	> 10	1 to 10
N#CC1(c2ccc(-c3c(C(=O)Nc4cnn(CC(N)=O)c4)cnc4ccc(F)cc34)cc2)CC1 [Cpd. 342, N-(1-(2-amino-2-oxoethyl)-1H-pyrazol-4-yl)-4-(4-(1-cyanocyclopropyl)phenyl)-6-fluoroquinoline-3-carboxamide]	0.5 to 1	< 0.5
N#CC1(c2ccc(-c3c(C(=O)N4CCC(O)(C5CC5)CC4)cnc4ccc(F)cc34)cc2)CC1 [Cpd. 353, 1-(4-(3-(4-cyclopropyl-4-hydroxypiperidine-1-carbonyl)-6-fluoroquinolin-4-yl)phenyl)cyclopropane-1-carbonitrile]	1 to 10	< 0.5
CN(C)C(=O)N1CCN(C(=O)c2cnc3c(F)cc(F)cc3c2N2CCC3(CC2)OCCO3)CC1 [Example 180, 4-(6,8-difluoro-4-(1,4-dioxa-8-azaspiro[4.5]decan-8-yl)quinoline-3-carbonyl)-N,N-dimethylpiperazine-1-carboxamide]	1 to 10	< 0.5
CC1(C#N)CCN(c2c(C(=O)N3CCN(S(C)(=O)=O)C4(CC4)C3)cnc3ccc(F)cc23)CC1 [Example 230, 1-(6-fluoro-3-(4-(methylsulfonyl)-4,7-diazaspiro[2.5]octane-7-carbonyl)quinolin-4-yl)-4-methylpiperidine-4-carbonitrile]	1 to 10	< 0.5
COc1ccc2ncc(C(=O)N3CCN(C(=O)C4CC4)CC3)c(N3CCC(C#N)CC3)c2c1 [Example 25, 1-(3-(4-(cyclopropanecarbonyl)piperazine-1-carbonyl)-6-methoxyquinolin-4-yl)piperidine-4-carbonitrile]	> 10	> 10
CN(C)C(=O)N1CCN(C(=O)c2cnc3c(F)cc(F)cc3c2N2CCC(C)(C#N)CC2)CC1 [Example 183, 4-(4-(4-cyano-4-methylpiperidin-1-yl)-6,8-difluoroquinoline-3-carbonyl)-N,N-dimethylpiperazine-1-carboxamide]	1 to 10	< 0.5
CN(C)C(=O)Cn1cc(NC(=O)c2cnc3ccc(F)cc3c2N2CCC(C#N)(c3ccccc3)CC2)cn1 [Cpd. 339, 4-(4-cyano-4-phenylpiperidin-1-yl)-N-(1-(2-(dimethylamino)-2-oxoethyl)-1H-pyrazol-4-yl)-6-fluoroquinoline-3-carboxamide]	< 0.5	< 0.5
